PubChem BioAssay (NCI)
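Assay format: 96-well plates, 48-hour exposure. At the TGI there is no net growth.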

Columns and labels:
Test in all cases: NCI tumour cell line growth inhibition, 48 h
[1] = test system: SF-268 CNS
[2] = test system: MALME-3M melanoma
[3] = test system: BT-549 breast
[4] = test system: HCT-116 colon
[5] = test system: IGROV1 ovarian
[6] = test system: M14 melanoma
[7] = test system: RPMI-8226 leukemia
[8] = test system: TK-10 renal
[9] = test system: NCI-H522 lung
[10] = test system: CAKI-1 renal
[11] = test system: NCI-H460 lung
[12] = test system: T-47D breast
[13] = test system: UO-31 renal
[14] = test system: OVCAR-8 ovarian
[15] = test system: SN12C renal
[16] = test system: SNB-19 CNS
[17] = test system: K-562 leukemia
[18] = test system: NCI-H23 lung
[19] = test system: OVCAR-5 ovarian
[20] = test system: CCRF-CEM leukemia
[21] = test system: A498 renal
[22] = test system: KM12 colon
[23] = test system: LOX IMVI melanoma
[24] = test system: HS 578T breast
[25] = test system: UACC-62 melanoma
[26] = test system: ACHN renal
[27] = test system: SK-OV-3 ovarian
[28] = test system: SF-295 CNS
[29] = test system: SF-539 CNS
[30] = test system: NCI/ADR-RES ovarian
[31] = test system: EKVX NSCLC
[32] = test system: SR leukemia
[33] = test system: HCC-2998 colon
[34] = test system: OVCAR-3 ovarian
[35] = test system: SNB-75 CNS
[36] = test system: SK-MEL-2 melanoma
[37] = test system: MDA-MB-435
[38] = test system: OVCAR-4 ovarian
[39] = test system: MOLT-4 leukemia
[40] = test system: SW-620 colon
[41] = test system: 786-0 renal
[42] = test system: SK-MEL-5 melanoma
[43] = test system: MDA-N
[44] = test system: HL-60(TB) leukemia
[45] = test system: SK-MEL-28 melanoma
[46] = test system: U251 CNS
[47] = test system: MDA-MB-231 breast
[48] = test system: MCF7 breast
[49] = test system: HCT-15 colon
[50] = test system: A549 NSCLC
[51] = test system: UACC-257 melanoma
[52] = test system: RXF 393 renal
[53] = test system: DU-145 prostate
[54] = test system: PC-3 prostate
[55] = test system: HOP-92 NSCLC
[56] = test system: NCI-H226 lung
[57] = test system: COLO 205 colon
[58] = test system: HOP-62 NSCLC
[59] = test system: HT29 colon

`CC(=O)OC(C)(C)/C=C/C(=O)[C@](C)(O)[C@H]1[C@H](O)C[C@@]2(C)[C@@H]3CC=C4[C@@H](C[C@H](O)C(=O)C4(C)C)[C@]3(C)C(=O)C[C@]12C` gave a TGI [1] of less than 0.01 µM, a TGI [2] of 1.55 µM and a TGI [3] of 20.1 nM. It also gave a TGI [4] of 1.22 µM, a TGI [5] of less than 0.0132 µM and a TGI [6] of less than 0.01 µM. It also gave a TGI [7] of less than 0.01 µM, a TGI [8] of less than 0.01 µM and a TGI [9] of less than 0.01 µM. The TGI [10] was less than 0.01 µM, the TGI [11] was 1.37 µM and the TGI [12] was 0.543 µM. For the same compound, the TGI [13] was less than 0.0167 µM, the TGI [14] was 5.8 µM and the TGI [15] was 2.99 µM. It also gave a TGI [16] of 153 nM, a TGI [17] of 16.8 µM and a TGI [18] of 4.07 µM. For the same compound, the TGI [19] was 13.8 µM, the TGI [20] was 0.423 µM and the TGI [21] was less than 0.01 µM. The TGI [22] was 13.6 µM, the TGI [23] was less than 0.01 µM and the TGI [24] was less than 0.01 µM. The TGI [25] was 2.17 µM, the TGI [26] was less than 0.03 µM and the TGI [27] was less than 0.0234 µM. The TGI [28] was 0.0304 µM, the TGI [29] was less than 0.01 µM and the TGI [30] was 15.2 µM. It also gave a TGI [31] of less than 0.0221 µM, a TGI [32] of 1.21 µM and a TGI [33] of 4.45 µM. It also gave a TGI [34] of 0.17 µM, a TGI [35] of less than 0.01 µM and a TGI [36] of less than 0.01 µM. The TGI [37] was 2.46 µM, the TGI [38] was less than 0.01 µM and the TGI [39] was 2.78 µM. The TGI [40] was 7.54 µM, the TGI [41] was 14.8 µM and the TGI [42] was 0.135 µM. For the same compound, the TGI [43] was 2.39 µM, the TGI [44] was less than 0.01 µM and the TGI [45] was less than 0.01 µM. It also gave a TGI [46] of less than 0.01 µM, a TGI [47] of less than 0.01 µM and a TGI [48] of 7.66 µM. For the same compound, the TGI [49] was 4.99 µM, the TGI [50] was 11.4 µM and the TGI [51] was 2.42 µM. It also gave a TGI [52] of less than 0.0128 µM and a TGI [53] of 1.05 µM.

`CNC(=O)c1n[nH][nH]c1=O` gave a TGI [1] greater than 100 µM, a TGI [2] greater than 100 µM and a TGI [4] greater than 100 µM. It also gave a TGI [5] greater than 100 µM, a TGI [6] greater than 100 µM and a TGI [7] greater than 100 µM. For the same compound, the TGI [9] was greater than 100 µM, the TGI [54] was greater than 100 µM and the TGI [10] was greater than 100 µM. The TGI [55] was greater than 100 µM, the TGI [12] was greater than 100 µM and the TGI [13] was greater than 100 µM. It also gave a TGI [14] greater than 100 µM, a TGI [15] greater than 100 µM and a TGI [16] greater than 100000 nM. For the same compound, the TGI [17] was greater than 100 µM, the TGI [18] was greater than 100 µM and the TGI [56] was greater than 100 µM. For the same compound, the TGI [19] was greater than 100 µM, the TGI [20] was greater than 100 µM and the TGI [21] was greater than 100 µM. For the same compound, the TGI [22] was greater than 100 µM, the TGI [23] was greater than 100 µM and the TGI [24] was greater than 100 µM. The TGI [25] was greater than 100 µM, the TGI [26] was greater than 100 µM and the TGI [27] was greater than 100 µM. For the same compound, the TGI [57] was greater than 100 µM, the TGI [28] was greater than 100 µM and the TGI [30] was greater than 100 µM. It also gave a TGI [31] greater than 100 µM, a TGI [32] greater than 100 µM and a TGI [33] greater than 100 µM. For the same compound, the TGI [35] was greater than 100 µM, the TGI [58] was greater than 100 µM and the TGI [36] was greater than 100 µM. It also gave a TGI [59] greater than 100 µM, a TGI [37] greater than 100 µM and a TGI [39] greater than 100 µM. For the same compound, the TGI [40] was greater than 100 µM, the TGI [41] was greater than 100 µM and the TGI [42] was greater than 100 µM. For the same compound, the TGI [43] was greater than 100 µM, the TGI [44] was greater than 100 µM and the TGI [45] was greater than 100 µM. It also gave a TGI [46] greater than 100 µM, a TGI [47] greater than 100 µM and a TGI [48] greater than 100 µM. For the same compound, the TGI [49] was greater than 100 µM, the TGI [50] was greater than 100 µM and the TGI [51] was greater than 100 µM. It also gave a TGI [52] greater than 100 µM and a TGI [53] greater than 100 µM.

`OC1CC(O)c2c(Cl)sc(Cl)c21` (stereo unspecified) was tested, and the TGI [1] was greater than 100 µM, the TGI [2] was greater than 100 µM and the TGI [3] was greater than 100000 nM. The TGI [4] was greater than 100 µM, the TGI [5] was greater than 100 µM and the TGI [6] was greater than 100 µM. For the same compound, the TGI [8] was 82.3 µM, the TGI [9] was 56.8 µM and the TGI [10] was greater than 100 µM. For the same compound, the TGI [55] was 56.2 µM, the TGI [11] was 65.2 µM and the TGI [12] was greater than 100 µM. For the same compound, the TGI [13] was 77.5 µM, the TGI [14] was greater than 100 µM and the TGI [15] was greater than 100 µM. The TGI [17] was greater than 100 µM, the TGI [18] was 67.3 µM and the TGI [56] was greater than 100 µM. The TGI [19] was greater than 100 µM, the TGI [20] was greater than 100 µM and the TGI [21] was greater than 100 µM. The TGI [22] was greater than 100 µM, the TGI [23] was greater than 100 µM and the TGI [24] was 82.4 µM. It also gave a TGI [25] greater than 100 µM, a TGI [26] greater than 100 µM and a TGI [27] of 82 µM. The TGI [57] was 33.4 µM, the TGI [28] was 87.3 µM and the TGI [29] was greater than 100 µM. The TGI [30] was greater than 100 µM, the TGI [31] was greater than 100 µM and the TGI [32] was greater than 100 µM. It also gave a TGI [34] of 70.8 µM, a TGI [35] of 49.2 µM and a TGI [58] of 98.4 µM. For the same compound, the TGI [36] was 49.4 µM, the TGI [59] was greater than 100 µM and the TGI [37] was greater than 100 µM. It also gave a TGI [38] greater than 100 µM, a TGI [39] greater than 100 µM and a TGI [40] greater than 100 µM. For the same compound, the TGI [41] was greater than 100 µM, the TGI [42] was greater than 100 µM and the TGI [43] was greater than 100 µM. It also gave a TGI [44] greater than 100 µM, a TGI [45] greater than 100 µM and a TGI [46] greater than 100 µM. For the same compound, the TGI [47] was greater than 100 µM, the TGI [48] was greater than 100 µM and the TGI [49] was greater than 100 µM. For the same compound, the TGI [50] was 89.2 µM, the TGI [51] was 54.9 µM and the TGI [52] was 11.5 µM. For the same compound, the TGI [53] was greater than 100 µM.
